# Patent US20250177383A1, “DI-CYCLOPROPYL BASED IL-17A MODULATORS AND USES THEREOF” (DICE ALPHA, INC., priority 2022, published 2025)
# Target: T1, IL-17A/F (Homo sapiens, UniProt Q16552+Q96PD4)
# T1 sequence (Q16552 24-155): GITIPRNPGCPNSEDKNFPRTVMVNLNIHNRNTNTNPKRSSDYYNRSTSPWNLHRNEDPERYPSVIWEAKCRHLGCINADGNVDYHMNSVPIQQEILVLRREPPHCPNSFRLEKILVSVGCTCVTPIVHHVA
# T1 sequence (Q96PD4 31-163): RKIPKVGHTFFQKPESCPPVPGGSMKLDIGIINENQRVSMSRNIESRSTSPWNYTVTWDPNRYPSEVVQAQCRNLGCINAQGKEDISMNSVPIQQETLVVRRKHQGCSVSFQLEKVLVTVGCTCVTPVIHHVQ
# Experiment: IL-17A/F HEK-Blue Cell Assay
# Assay type: cell-based
# Details: HEK-Blue IL-17 reporter cells, IL-17A/F stimulation, 20 hours, SEAP readout; read-out: IL17AF HEK Blue pIC50 (converted)
# Protocol: (§1) The HEK-Blue IL-17 reporter cell line (Fisher #NC1408637) was used for cell-based IL-17A/F inhibition assays. Cells were grown and prepared for assays according to the manufacturer's instructions. This cell line consists of HEK 293 cells that were designed to expressed IL-17RA, IL-17R^C, and the ActI adapter molecule, the combination of which, when stimulated by IL-17A/A activates a NFκB promoter and drives expression of a recombinant Secreted Alkaline Phosphatase (SEAP) geneprotein. Media from the cells is then added to a development reagent (Quanti-Blue Substrate, Fisher #NC9711613), and read at A630.
# (§2) Compounds were titrated in DMSO and added to the cells immediately before adding IL-17A/A (Custom from R&D systems, untagged IL-17A/F+BSA as a carrier protein). The cells, compound, and IL-17A/A were then incubated for 20 hours before media was removed for SEAP analysis. The resulting inhibition curve was then analyzed using a Dotmatics screening protocol, and IC50 values were determined using a 4-parameter nonlinear fit. DMSO was added to a universal final concentration of 0.1% to optimize background.
row,IC50 [nM],SMILES
1,10 to 100,"CCC(OC)C(=O)N[C@@H](C(=O)N1CCN(C)[C@H](C)C1)[C@@H](C)c1ccc(NC(=O)[C@@H](NC(=O)c2ccnn2CC)C(C2CC2)C2CC2)c(F)c1 (single isomer, unassigned) [Compound 338]"
2,10 to 100,"CCn1nccc1C(=O)N[C@H](C(=O)Nc1ccc([C@H](C)[C@@H](NC(=O)C(C)Cc2cc(O)no2)C(=O)N2CCN(C)[C@H](C)C2)cc1F)C(C1CC1)C1CC1 (single isomer, unassigned) [Compound 344]"
3,100 to 10000,CCOC(=O)N[C@@H](CF)C(=O)N[C@@H](C(=O)N1CCN(C)[C@H](C)C1)[C@@H](C)c1ccc(NC(=O)[C@@H](NC(=O)C2(F)CC2)C(C2CC2)C2CC2)c(F)c1 [Compound 358]
4,10 to 100,CCn1nccc1C(=O)N[C@H](C(=O)Nc1ccc([C@H](C)[C@@H](NC(=O)COC)C(=O)N2CCN(C)C[C@@H]2C)cc1F)C(C1CC1)C1CC1 [Compound 283]
5,10 to 100,"CCOC(C)C(=O)N[C@@H](C(=O)N1CCN(C)CC1)[C@@H](C)c1ccc(NC(=O)[C@@H](NC(=O)c2ccnn2CC)C(C2CC2)C2CC2)c(F)c1 (single isomer, unassigned) [Compound 328]"

# Target: T2, IL-17A/A (Homo sapiens, UniProt Q16552)
# T2 sequence (Q16552 24-155): T1 sequence (Q16552 24-155)
# Experiment: IL-17A/A HEK-Blue Cell Assay
# Assay type: cell-based
# Details: HEK-Blue IL-17 reporter cells, IL-17A/A stimulation, 20 hours, SEAP readout; read-out: IL17 AA HEK-5 pIC50 (converted)
# Protocol: as §1, with “IL-17A/A” for “IL-17A/F”, “IL-17R^A,” for “IL-17RA,”, “protein.” for “geneprotein.”
# as §2, with “in DMSO, with a top final compound concentration of 10 uM” for “in DMSO”, “IL-17A/A (Genscript #Z03228).” for “IL-17A/A (Custom from R&D systems, untagged IL-17A/F+BSA as a carrier protein).”, “background. IL-17A/A inhibition data is provided in Table 1 for selected compounds.” for “background.”
row,SMILES,IC50 [nM]
1,"CCC(OC)C(=O)N[C@@H](C(=O)N1CCN(C)[C@H](C)C1)[C@@H](C)c1ccc(NC(=O)[C@@H](NC(=O)c2ccnn2CC)C(C2CC2)C2CC2)c(F)c1 (single isomer, unassigned) [Compound 338]",< 10
2,"CCn1nccc1C(=O)N[C@H](C(=O)Nc1ccc([C@H](C)[C@@H](NC(=O)C(C)Cc2cc(O)no2)C(=O)N2CCN(C)[C@H](C)C2)cc1F)C(C1CC1)C1CC1 (single isomer, unassigned) [Compound 344]",< 10
3,CCOC(=O)N[C@@H](CF)C(=O)N[C@@H](C(=O)N1CCN(C)[C@H](C)C1)[C@@H](C)c1ccc(NC(=O)[C@@H](NC(=O)C2(F)CC2)C(C2CC2)C2CC2)c(F)c1 [Compound 358],< 10
4,CCn1nccc1C(=O)N[C@H](C(=O)Nc1ccc([C@H](C)[C@@H](NC(=O)COC)C(=O)N2CCN(C)C[C@@H]2C)cc1F)C(C1CC1)C1CC1 [Compound 283],< 10
5,"CCC(=O)N[C@@H](C(=O)N1CCN(C)C(COC)C1)[C@@H](C)c1ccc(NC(=O)[C@@H](NC(=O)c2ccnn2CC)C(C2CC2)C2CC2)c(F)c1 (single isomer, unassigned) [Compound 202]",10 to 100
6,CCC(=O)N[C@@H](C(=O)N1CCOCC1)[C@@H](C)c1ccc(NC(=O)[C@@H](NC(=O)c2ccnn2CCN2CCOCC2)C(C2CC2)C2CC2)c(F)c1 [Compound 253],100 to 10000
7,CCc1nonc1C(=O)N[C@H](C(=O)Nc1ccc([C@H](C)[C@@H](NC(=O)N(C)C2CC2)C(=O)N2CCN(C)CC2)cc1F)C(C1CC1)C1CC1 [Compound 224],< 10
8,CCOC(=O)N(C)[C@@H](C)C(=O)N[C@@H](C(=O)N1CCN(C)[C@H](C)C1)[C@@H](C)c1ccc(NC(=O)[C@@H](NC(=O)c2ccnn2CC)C(C2CC2)C2CC2)c(F)c1 [Compound 210],< 10
9,CCC(=O)N[C@@H](C(=O)N1C[C@H]2C[C@@H]1CN2C)[C@@H](C)c1ccc(NC(=O)[C@@H](NC(=O)c2ccnn2CC)C(C2CC2)C2CC2)c(F)c1 [Compound 236],10 to 100
10,CCn1nccc1C(=O)N[C@H](C(=O)Nc1ccc([C@H](C)[C@@H](NC(=O)CC2CC2)C(=O)N2CCN(C)[C@H](C)C2)cc1F)C(C1CC1)C1CC1 [Compound 226],< 10
11,CCc1nonc1C(=O)N[C@H](C(=O)Nc1ccc([C@H](C)[C@@H](NC(=O)COC)C(=O)N2CCN(C)CC2)cc1F)C(C1CC1)C1CC1 [Compound 206],< 10
12,CCn1nccc1C(=O)N[C@H](C(=O)Nc1ccc([C@H](C)[C@@H](NC(=O)[C@H](C)OC)C(=O)N2C[C@H]3CC[C@@H](C2)N3C)cc1F)C(C1CC1)C1CC1 [Compound 254],< 10
13,CCC(=O)N[C@@H](C(=O)N1CC[C@H](N(C)C)C1)[C@@H](C)c1ccc(NC(=O)[C@@H](NC(=O)c2ccnn2CC)C(C2CC2)C2CC2)c(F)c1 [Compound 240],10 to 100
14,CCC(=O)N[C@@H](C(=O)N1CCC(C)(O)CC1)[C@@H](C)c1ccc(NC(=O)[C@@H](NC(=O)c2ccnn2CCN2CCOCC2)C(C2CC2)C2CC2)c(F)c1 [Compound 252],10 to 100
15,CCOC(=O)N(C)[C@@H](C)C(=O)N[C@@H](C(=O)N1CCN(C)CC1)[C@@H](C)c1ccc(NC(=O)[C@@H](NC(=O)c2ccnn2CC)C(C2CC2)C2CC2)c(F)c1 [Compound 211],< 10
16,CCC(=O)N[C@@H](C(=O)N1C[C@H]2C[C@@H]1CN2C)[C@@H](C)c1ccc(NC(=O)[C@@H](NC(=O)c2ccnn2C(C)C)C(C2CC2)C2CC2)c(F)c1 [Compound 266],10 to 100
17,CCOC(=O)N1CC[C@H]1C(=O)N[C@@H](C(=O)N1CCN(C)CC1)[C@@H](C)c1ccc(NC(=O)[C@@H](NC(=O)C2(F)CC2)C(C2CC2)C2CC2)c(F)c1 [Compound 274],10 to 100
18,CCC(=O)N[C@@H](C(=O)N1C[C@@H](C)N(C)[C@@H](C)C1)[C@@H](C)c1ccc(NC(=O)[C@@H](NC(=O)c2nonc2CC)C(C2CC2)C2CC2)c(F)c1 [Compound 205],< 10
19,CCC(=O)N[C@@H](C(=O)N1CCC[C@@H](N)C1)[C@@H](C)c1ccc(NC(=O)[C@@H](NC(=O)c2ccnn2CC)C(C2CC2)C2CC2)c(F)c1 [Compound 268],10 to 100
20,CCn1nccc1C(=O)N[C@H](C(=O)Nc1ccc([C@H](C)[C@@H](NC(=O)[C@H](C)OC)C(=O)N2C[C@H]3C[C@@H]2CN3C)cc1F)C(C1CC1)C1CC1 [Compound 256],10 to 100
21,CO[C@@H](C)C(=O)N[C@@H](C(=O)N1CC[C@H](N(C)C)C1)[C@@H](C)c1ccc(NC(=O)[C@@H](NC(=O)c2ccnn2C(C)C)C(C2CC2)C2CC2)c(F)c1 [Compound 262],< 10
22,CO[C@@H](C)C(=O)N[C@@H](C(=O)N1CCN(C)[C@H](C)C1)[C@@H](C)c1ccc(NC(=O)[C@@H](NC(=O)c2ccnn2C(C)C)C(C2CC2)C2CC2)c(F)c1 [Compound 260],< 10
23,CCc1nonc1C(=O)N[C@H](C(=O)Nc1ccc([C@H](C)[C@@H](NC(=O)[C@H](C)OC)C(=O)N2CCN(C)CC2)cc1F)C(C1CC1)C1CC1 [Compound 220],< 10
24,CCC(=O)N[C@@H](C(=O)N1C[C@H]2CN(C)C[C@H]2C1)[C@@H](C)c1ccc(NC(=O)[C@@H](NC(=O)c2ccnn2CC)C(C2CC2)C2CC2)c(F)c1 [Compound 237],100 to 10000

# Other lines, results leading:
row,IC50 [nM],SMILES
1,< 10,"CCOC(C)C(=O)N[C@@H](C(=O)N1CCN(C)CC1)[C@@H](C)c1ccc(NC(=O)[C@@H](NC(=O)c2ccnn2CC)C(C2CC2)C2CC2)c(F)c1 (single isomer, unassigned) [Compound 328]"
2,100 to 10000,CCC(=O)N[C@@H](C(=O)N1CCN(C)[C@H](C)C1)[C@@H](C)c1ccc(NC(=O)[C@@H](NC(=O)c2ccnn2CCO)C(C2CC2)C2CC2)c(F)c1 [Compound 244]
3,10 to 100,CCC(=O)N[C@@H](C(=O)N1CCN(C)CC1)[C@@H](C)c1ccc(NC(=O)[C@@H](NC(=O)c2ccnn2CC(F)F)C(C2CC2)C2CC2)c(F)c1 [Compound 231]
4,10 to 100,CCC(=O)N[C@@H](C(=O)N1CCN(C)[C@H](C)C1)[C@@H](C)c1ccc(NC(=O)[C@@H](NC(=O)c2ccnn2CC(F)(F)F)C(C2CC2)C2CC2)c(F)c1 [Compound 248]
5,< 10,"CCC(=O)N[C@@H](C(=O)N1CCN(C)CC1)[C@@H](C)c1ccc(NC(=O)[C@@H](NC(=O)c2ccnn2C2CC2(F)F)C(C2CC2)C2CC2)c(F)c1 (single isomer, unassigned) [Compound 234]"
6,10 to 100,CCC(=O)N[C@@H](C(=O)N1CCN(C)CC1)[C@@H](C)c1ccc(NC(=O)[C@@H](NC(=O)c2ccnn2C)C(C2CC2)C2CC2)c(F)c1 [Compound 247]
7,< 10,CCn1nccc1C(=O)N[C@H](C(=O)Nc1ccc([C@H](C)[C@@H](NC(=O)CC2CC2)C(=O)N2CCN(C)CC2)cc1F)C(C1CC1)C1CC1 [Compound 227]
8,< 10,CCC(=O)N[C@@H](C(=O)N1CCN(C)[C@H](C)C1)[C@@H](C)c1ccc(NC(=O)[C@@H](NC(=O)c2ccnn2C2CC2)C(C2CC2)C2CC2)c(F)c1 [Compound 229]
9,10 to 100,CCC(=O)N[C@@H](C(=O)N1CCN(C)CC1)[C@@H](C)c1ccc(NC(=O)[C@@H](NC(=O)c2ccnn2C2CC2)C(C2CC2)C2CC2)c(F)c1 [Compound 230]
10,10 to 100,CCC(=O)N[C@@H](C(=O)N1CCN(C)CC1)[C@@H](C)c1ccc(NC(=O)[C@@H](NC(=O)c2ccnn2CC(F)(F)F)C(C2CC2)C2CC2)c(F)c1 [Compound 249]
11,100 to 10000,CCC(=O)N[C@@H](C(=O)N1CCN(C)CC1)[C@@H](C)c1ccc(NC(=O)[C@@H](NC(=O)c2ccnn2CCO)C(C2CC2)C2CC2)c(F)c1 [Compound 243]
12,10 to 100,CCC(=O)N[C@@H](C(=O)N1CCOCC1)[C@@H](C)c1ccc(NC(=O)[C@@H](NC(=O)c2ccnn2CCF)C(C2CC2)C2CC2)c(F)c1 [Compound 251]
13,10 to 100,CCn1nccc1C(=O)N[C@H](C(=O)Nc1ccc([C@H](C)[C@@H](NC(=O)CCF)C(=O)N2CCN(C)CC2)cc1F)C(C1CC1)C1CC1 [Compound 218]
